# Measured values from US7683176B2, “Triazolyl pyridyl benzenesulfonamides” (ChemoCentryx, Inc., priority 2006, dated 2010).
# pIC50: −log10 of the molar value.
# Target: T1, CCR9 (Homo sapiens, UniProt P51686)
# T1 construct: chemokine expressing cells (such as THP-1 cells for CCR2 assay or MOLT-4 cells for CCR9 assay); host or cells: MOLT-4
# T1 sequence (P51686 1-369): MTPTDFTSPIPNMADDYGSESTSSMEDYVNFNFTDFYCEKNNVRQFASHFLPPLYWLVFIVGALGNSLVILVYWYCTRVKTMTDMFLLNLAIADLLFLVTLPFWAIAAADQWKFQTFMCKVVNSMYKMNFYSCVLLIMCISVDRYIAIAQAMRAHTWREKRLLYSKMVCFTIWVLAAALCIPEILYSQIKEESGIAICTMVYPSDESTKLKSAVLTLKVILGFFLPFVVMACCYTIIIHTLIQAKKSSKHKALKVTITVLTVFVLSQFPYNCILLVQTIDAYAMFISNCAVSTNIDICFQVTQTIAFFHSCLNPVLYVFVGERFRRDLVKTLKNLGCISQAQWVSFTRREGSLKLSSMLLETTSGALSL
# Assay: CCR9 activity in one of the chemotaxis, binding or calcium mobilization assays
# Assay type: cell-based
# Details: binding or calcium mobilization assays (MOLT-4 cells, TECK)
# Procedure: THP-1 cells and MOLT-4 cells were obtained from the American Type Culture Collection (Manassas, Va.) and cultured in RPMI tissue culture medium supplemented with 10% fetal calf serum (FCS) in a humidified 5% CO2 incubator at 37° C. Recombinant human chemokine proteins MCP-1 and TECK were obtained from R&D Systems (Minneapolis, Minn.). ^125I-labeled MCP-1 protein was obtained from Amersham (Piscataway, N.J.). ChemoTX® chemotaxis microchambers were purchased from Neuro Probe (Gaithersburg, Md.). CyQUANT® cell proliferation kits were purchased from Molecular Probes (Eugene, Oreg.). Calcium indicator dye Fluo-4 AM was purchased from Molecular Devices (Mountain View, Calif.).
# Conventional migration assay was used to determine the efficacy of potential receptor antagonists in blocking migration mediated through chemokines (such as CCR2 or CCR9). This assay was routinely performed using the ChemoTX® microchamber system with a 5-μm pore-sized polycarbonate membrane. To begin such an assay, chemokine expressing cells (such as THP-1 cells for CCR2 assay or MOLT-4 cells for CCR9 assay) were harvested by centrifugation of cell suspension at 1000 RPM on a GS-6R Beckman centrifuge. The cell pellet was resuspended in chemotaxis buffer (HBSS with 0.1% BSA) at 10×10^6 cells/mL for CCR2 assay (5×10^6 cells/mL for CCR9 assay). Test compounds at desired concentrations were prepared from 10 mM stock solutions by serial dilutions in chemotaxis buffer. An equal volume of cells and compounds were mixed and incubated at room temperature for 15 minutes. Afterwards, 20 μL of the mixture was transferred onto the porous membrane of a migration microchamber, with 29 μL of chemokine ligand (0.1 nM chemokine MCP-1 protein for CCR2 assay or […] chemokine TECK protein for CCR9 assay) placed at the lower chamber. Following an incubation at 37° C. (90-minute for CCR2; 150-minute for CCR9), during which cells migrated […] the chemokine gradient, the assay was terminated by removing the cell drops from atop the filter. To quantify cells migrated across the membrane, 5 μL of 7× CyQUANT® solution was added to each well in the lower chamber, and the fluorescence signal measured on a Spectrafluor Plus fluorescence plate reader (TECAN, Durham, N.C.). The degree of inhibition was determined by comparing migration signals between compound-treated and untreated cells. IC50 calculation was further performed by non-linear squares regression analysis using Graphpad Prism (Graphpad Software, San Diego, Calif.).
# Calcium flux assay measures an increase in intracellular calcium following ligand-induced receptor activation. In the screen of chemokine antagonists, it was used as a secondary assay carried out on a FLIPR® machine (Molecular Devices, Mountain View, Calif.). To begin an assay, chemokine expressing cells (such as THP-1 cells for CCR2 assay or MOLT-4 cells for CCR9 assay) were harvested by centrifugation of cell suspension, and resuspended to 1.5×10^6 cells/mL in HBSS (with 1% fetal calf serum). Cells were then labeled with a calcium indicator dye Fluo-4 AM for 45 minutes at 37° C. with gentle shaking. Following incubation, cells were pelletted, washed once with HBSS and resuspended in the same buffer at a density of 1.6×10^6 cells/mL. One hundred microliters of labeled cells were mixed with 10 μL of test compound at the appropriate concentrations on an assay plate. Chemokine protein (MCP-1 at a final concentration of 0.1 nM for CCR2 assay or TECK at a final concentration of 25 nM for CCR9 assay) to activate the receptor. The degree of inhibition was determined by comparing calcium signals between compound-treated and untreated cells. IC50 calculations were further performed by non-linear squares regression analysis using Graphpad Prism (Graphpad Software, San Diego, Calif.).
row,pIC50,Structure (SMILES)
1,> 6.00,Cc1nnc(-c2ncc(Cl)cc2NS(=O)(=O)c2ccc(C(C)(C)C)cc2)n1C(C)C
2,> 6.00,CC(C)n1cnnc1-c1ncc(Cl)cc1NS(=O)(=O)c1ccc(C(C)(C)C)cc1
3,> 6.00,CC(C)(C)c1ccc(S(=O)(=O)Nc2cc(Cl)cnc2-c2nncn2-c2ccccc2)cc1
4,> 6.00,CC(C)n1c(-c2ncc(Cl)cc2NS(=O)(=O)c2ccc(C(C)(C)C)cc2)nnc1C(C)(C)O
5,> 6.00,Cn1cnnc1-c1ncc(Cl)cc1NS(=O)(=O)c1ccc(C(C)(C)C)cc1
6,> 6.00,CC(C)c1nnc(-c2ncc(Cl)cc2NS(=O)(=O)c2ccc(C(C)(C)C)cc2)n1C
7,> 6.00,CCn1c(COC)nnc1-c1ncc(Cl)cc1NS(=O)(=O)c1ccc(C(C)(C)C)cc1
8,> 6.00,Cn1c(-c2ccncc2)nnc1-c1ncc(Cl)cc1NS(=O)(=O)c1ccc(C(C)(C)C)cc1
9,> 6.00,CNC(=O)c1nnc(-c2ncc(Cl)cc2NS(=O)(=O)c2ccc(C(C)(C)C)cc2)n1C(C)C
10,> 6.00,CC(C)(C)c1ccc(S(=O)(=O)Nc2cc(Cl)cnc2-c2nncn2-c2ccccc2F)cc1
11,> 6.00,CCn1cnnc1-c1ncc(Cl)cc1NS(=O)(=O)c1ccc(C(C)(C)C)cc1
12,> 6.00,Cc1nnc(-c2ncc(Cl)cc2NS(=O)(=O)c2ccc(C(C)(C)C)cc2)n1C
13,> 6.00,Cn1c(-c2cccnc2)nnc1-c1ncc(Cl)cc1NS(=O)(=O)c1ccc(C(C)(C)C)cc1
14,> 6.00,Cn1c(-c2ccno2)nnc1-c1ncc(Cl)cc1NS(=O)(=O)c1ccc(C(C)(C)C)cc1
15,> 6.00,Cc1cnc(-c2nncn2C2CCN(C(=O)OC(C)(C)C)C2)c(NS(=O)(=O)c2ccc(C(C)(C)C)cc2)c1 (centres unmarked)
16,> 6.00,COCc1nnc(-c2ncc(Cl)cc2NS(=O)(=O)c2ccc(C(C)(C)C)cc2)n1C

row,pIC50,Structure (SMILES)
1,> 6.00,CC(C)(C)c1ccc(S(=O)(=O)Nc2cc(Cl)cnc2-c2nncn2[C@H]2CCNC2)cc1
2,> 6.00,CC(C)(C)c1ccc(S(=O)(=O)Nc2cc(Cl)cnc2-c2nncn2[C@H]2CCCNC2)cc1
3,> 6.00,CCn1c(C)nnc1-c1ncc(Cl)cc1NS(=O)(=O)c1ccc(C(C)(C)C)cc1
4,> 6.00,CC(C)n1c(C(=O)N(C)C)nnc1-c1ncc(Cl)cc1NS(=O)(=O)c1ccc(C(C)(C)C)cc1
5,> 6.00,COCc1nnc(-c2ncc(Cl)cc2NS(=O)(=O)c2ccc(C(C)(C)C)cc2)n1C(C)C
6,> 6.00,Cc1nnc(-c2ncc(Cl)cc2NS(=O)(=O)c2ccc(C(C)(C)C)cc2)n1C1CC1
7,> 6.00,Cn1c(-c2ncc(Cl)cc2NS(=O)(=O)c2ccc(C(C)(C)C)cc2)nnc1C1CCNCC1
8,> 6.00,Cc1cnc(-c2nncn2C2CCNC2)c(NS(=O)(=O)c2ccc(C(C)(C)C)cc2)c1 (centres unmarked)
9,> 6.00,CC(C)(C)c1ccc(S(=O)(=O)Nc2cc(Cl)cnc2-c2nnc3n2CCOC3)cc1
10,> 6.00,CC(C)(C)c1ccc(S(=O)(=O)Nc2cc(Cl)cnc2-c2nnc3n2CCNC3)cc1
11,> 6.00,Cc1cnc(-c2nncn2C2CCN(C)C2)c(NS(=O)(=O)c2ccc(C(C)(C)C)cc2)c1 (centres unmarked)
12,> 6.00,COCc1nnc(-c2ncc(Cl)cc2NS(=O)(=O)c2ccc(C(C)(C)C)cc2)n1C1CCOCC1
13,> 6.00,CC(C)n1c(N)nnc1-c1ncc(Cl)cc1NS(=O)(=O)c1ccc(C(C)(C)C)cc1
14,> 6.00,CC(=O)Nc1nnc(-c2ncc(Cl)cc2NS(=O)(=O)c2ccc(C(C)(C)C)cc2)n1C(C)C
15,> 6.00,Cn1c(-c2ncc(Cl)cc2NS(=O)(=O)c2ccc(C(C)(C)C)cc2)nnc1C1CCCN1 (centres unmarked)
16,> 6.00,CCOC(=O)c1nnc(-c2ncc(Cl)cc2NS(=O)(=O)c2ccc(C(C)(C)C)cc2)n1C(C)C
